63 compounds from US8450308B2 (Vitae Pharmaceuticals, Inc., priority 2008, dated 2013) can be followed below.

The target of this assay is T1, truncated human beta-secretase (residues 1-458, His6-tagged at the C-terminus) (Homo sapiens, UniProt P56817).
T1 construct: truncated human beta-secretase (residues 1-458, His6-tagged at the C-terminus); His6 (C); made in house; host or cells: insect cells D. melanogaster S2 (baculovirus expression system (so in the source))
Nature of the assay: BACE fluorescence quench assay. It is filed as biochemical. The settings on record: in vitro enzyme activity, BACE fluorescence assay, pH 4.5; read-out: IC50.

T1 sequence (P56817 22-458): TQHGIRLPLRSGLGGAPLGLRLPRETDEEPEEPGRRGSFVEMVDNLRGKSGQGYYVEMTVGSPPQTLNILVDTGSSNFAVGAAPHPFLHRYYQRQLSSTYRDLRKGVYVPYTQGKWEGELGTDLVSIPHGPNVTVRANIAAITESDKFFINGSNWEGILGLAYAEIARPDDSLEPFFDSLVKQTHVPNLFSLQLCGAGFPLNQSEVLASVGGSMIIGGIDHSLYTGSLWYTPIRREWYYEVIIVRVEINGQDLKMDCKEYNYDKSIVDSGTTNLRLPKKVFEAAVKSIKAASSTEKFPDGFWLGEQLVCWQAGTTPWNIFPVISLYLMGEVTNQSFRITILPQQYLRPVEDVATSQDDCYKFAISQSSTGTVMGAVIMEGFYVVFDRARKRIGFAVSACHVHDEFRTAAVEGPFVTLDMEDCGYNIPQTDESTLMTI

Broadly, the IC50 is the midpoint of a concentration-inhibition curve. For the compound `CN1C(=O)[C@@]2(C[C@@]3(CCCOC3)Oc3ccc(-c4cccc(C(F)(F)F)c4)cc32)N=C1N` [Compound 325], the IC50 was in the range of 100 to 500 nM.

As to `CN1OC2(CC(C3CC(C)(C)OC(C)(C)C3)Oc3ccc(-c4cccc(C#N)c4)cc32)N=C1N` (stereo not drawn) [Compound 327], the IC50 was in the range of 100 to 500 nM.

For the compound `COc1cc(F)cc(-c2ccc3c(c2)[C@]2(C[C@@]4(CCCOC4)O3)N=C(N)N(C)C2=O)c1` [Compound 328], the IC50 was in the range of 100 to 500 nM.

In the case of `CN1OC2(CC3(CCCN(c4ncccn4)C3)Oc3ccc(-c4cccc(C#N)c4)cc32)N=C1N` (stereo not drawn) [Compound 329], the 50% inhibitory concentration (IC50) lay in the range of 100 to 500 nM.

Regarding `CN1C(=O)C2(CC3(CCCOC3)Oc3ccc(-c4cc(F)ccc4F)cc32)N=C1N` (stereo not drawn) [Compound 332], the IC50 was 100 to 500 nM.

Take `CN1OC2(CC(C3CCCOC3)Oc3ccc(-c4ccc(F)c(C#N)c4F)cc32)N=C1N` (stereo not drawn) [Compound 334]: the half-inhibitory concentration (IC50) fell in the range of 100 to 500 nM.

For the compound `CN1C(=O)[C@@]2(C[C@@]3(CCCOC3)Oc3ccc(-c4cccc(Br)c4)cc32)N=C1N` [Compound 336], the half-maximal inhibitory concentration (IC50) lay within 100 to 500 nM.

Turning to `CN1OC2(CC(C3CCOC(C)(C)C3)Oc3ccc(-c4cc(F)cc(F)c4)cc32)N=C1N` (stereo not drawn) [Compound 339], the IC50 was 100 to 500 nM.

With `Cc1cc(C)cc(-c2ccc3c(c2)[C@]2(C[C@@]4(CCCOC4)O3)N=C(N)N(C)C2=O)c1` [Compound 340], the IC50 lay in the range of 100 to 500 nM.

Take `CN1OC2(C[C@H]([C@H]3CCOC(C)(C)C3)Oc3ccc(-c4cc(F)ccc4F)cc32)N=C1N` (stereo partly drawn) [Compound 341]: the IC50 was in the range of 100 to 500 nM.

With `CCOc1ccc(Cl)cc1-c1ccc2c(c1)[C@]1(C[C@]3(CCCOC3)O2)N=C(N)N(C)C1=O` [Compound 342], the half-maximal inhibitory concentration (IC50) was 100 to 500 nM.

In the case of `CN1OC2(CC(C3CCOC(C)(C)C3)Oc3ccc(-c4cccc(F)c4)cc32)N=C1N` (stereo not drawn) [Compound 343], the IC50 fell in the range of 100 to 500 nM.

Turning to `CN1OC2(CC(C3CCOC(C)(C)C3)Oc3ccc(-c4cc(F)cc(F)c4F)cc32)N=C1N` (stereo not drawn) [Compound 344], the half-inhibitory concentration (IC50) fell in the range of 100 to 500 nM.

Regarding `CN1C(=O)C2(CC3(CCCOC3)Oc3ccc(-c4cc(F)cc(F)c4F)cc32)N=C1N` (stereo not drawn) [Compound 346], the half-inhibitory concentration (IC50) is 500 to 1000 nM.

As to `CN1C(=O)C2(CC3(CCCOC3)Oc3ccc(-c4cccc(F)c4)cc32)N=C1N` (stereo not drawn) [Compound 347], the half-inhibitory concentration (IC50) lay in the range of 500 to 1000 nM.

In the case of `CN1OC2(CC(C3CCOCC3)Oc3ccc(-c4cc(Cl)cc(C#N)c4)cc32)N=C1N` (stereo not drawn) [Compound 350], the concentration for half-maximal inhibition (IC50) was 500 to 1000 nM.

Regarding `CN1C(=O)C2(CC3(CCCOC3)Oc3ccc(-c4ccc(F)c(F)c4)cc32)N=C1N` (stereo not drawn) [Compound 351], the half-maximal inhibitory concentration (IC50) lay within 500 to 1000 nM.

Turning to `CN1OC2(CC(C3CCOC(C)(C)C3)Oc3ccc(-c4cc(C#N)ccc4C(F)(F)F)cc32)N=C1N` (stereo not drawn) [Compound 354], the IC50 was in the range of 500 to 1000 nM.

In the case of `CN1C(=O)[C@@]2(C[C@@]3(CCCOC3)Oc3ccc(-c4cc(F)cc(C#N)c4)cc32)N=C1N` [Compound 356], the IC50 lay within 500 to 1000 nM.

With `CN1C(=O)[C@@]2(C[C@@]3(CCCOC3)Oc3ccc(-c4cccc(OC(F)(F)F)c4)cc32)N=C1N` [Compound 357], the half-maximal inhibitory concentration (IC50) lay within 500 to 1000 nM.

Take `CC(=O)c1cccc(-c2ccc3c(c2)[C@]2(C[C@]4(CCCOC4)O3)N=C(N)N(C)C2=O)c1` [Compound 358]: the IC50 was 500 to 1000 nM.

Regarding `CN1C(=O)[C@@]2(C[C@@]3(CCCOC3)Oc3ccc(-c4cc(F)cc(F)c4F)cc32)N=C1N` [Compound 359], the IC50 was 500 to 1000 nM.

`CN1OC2(CC(C3CCOC(C)(C)C3)Oc3ccc(-c4ccc5cn[nH]c5c4)cc32)N=C1N` (stereo not drawn) [Compound 361]: the IC50 lay within 500 to 1000 nM.

As to `CN1OC2(C[C@H]([C@@H]3CCOC(C)(C)C3)Oc3ccc(-c4ccc(F)c(F)c4)cc32)N=C1N` (stereo partly drawn) [Compound 362], the half-maximal inhibitory concentration (IC50) fell in the range of 500 to 1000 nM.

Take `Cc1cccc(-c2ccc3c(c2)C2(CC(C4CCOC(C)(C)C4)O3)N=C(N)N(C)O2)c1F` (stereo not drawn) [Compound 363]: the 50% inhibitory concentration (IC50) lay within 500 to 1000 nM.

Take `Cc1ccc(C)c(-c2ccc3c(c2)C2(CC4(CCCOC4)O3)N=C(N)N(C)C2=O)c1` (stereo not drawn) [Compound 364]: the IC50 was 500 to 1000 nM.

On to `CN1OC2(C[C@H]([C@H]3CCOC(C)(C)C3)Oc3ccc(-c4ccc(F)c(F)c4)cc32)N=C1N` (stereo partly drawn) [Compound 365], for which the half-maximal inhibitory concentration (IC50) is 500 to 1000 nM.

For the compound `Cc1ccc(C#N)cc1-c1ccc2c(c1)C1(CC3(CCCOC3)O2)N=C(N)N(C)C1=O` (stereo not drawn) [Compound 368], the IC50 was in the range of 500 to 1000 nM.

`CN1OC2(C[C@H](C3CCOC(C)(C)C3)Oc3ccc(-c4ccc5cn[nH]c5c4)cc32)N=C1N` (stereo partly drawn) [Compound 369]: the concentration for half-maximal inhibition (IC50) was in the range of 500 to 1000 nM.

Regarding `CN1OC2(CC(C3CCOC(C)(C)C3)Oc3ccc(-c4csc(-n5ccnc5)n4)cc32)N=C1N` (stereo not drawn) [Compound 370], the IC50 is 500 to 1000 nM.

Regarding `CC1CC[C@]2(CO1)C[C@]1(N=C(N)N(C)O1)c1cc(-c3cc(Cl)cc(Cl)c3)ccc1O2` (stereo partly drawn) [Compound 371], the IC50 was in the range of 500 to 1000 nM.

Turning to `CN1C(=O)C2(CC(C3CCOC(C)(C)C3)Oc3ccc(-c4cc(F)cc(F)c4)cc32)N=C1N` (stereo not drawn) [Compound 372], the concentration for half-maximal inhibition (IC50) is 500 to 1000 nM.

Turning to `CN1O[C@]2(C[C@]3(CCCc4ccccc43)Oc3ccc(-c4cccc(C#N)c4)cc32)N=C1N` [Compound 374], the IC50 fell in the range of 1000 to 5000 nM.

Take `CN1OC2(CC3(CCC(OCc4ccccc4)CC3)Oc3ccc(-c4cccc(C#N)c4)cc32)N=C1N` (stereo not drawn) [Compound 375]: the IC50 is 1000 to 5000 nM.

Take `CN1C(=O)[C@@]2(C[C@]3(CCCOC3)Oc3ccc(-c4cc(CO)ccc4F)cc32)N=C1N` [Compound 376]: the concentration for half-maximal inhibition (IC50) fell in the range of 1000 to 5000 nM.

On to `CC(C)=CC(CCO)C1CC2(N=C(N)N(C)O2)c2cc(-c3cc(F)cc(C#N)c3)ccc2O1` (stereo not drawn) [Compound 377], for which the concentration for half-maximal inhibition (IC50) is 1000 to 5000 nM.

On to `CCOc1ccc(Cl)cc1-c1ccc2c(c1)[C@]1(C[C@@]3(CCCOC3)O2)N=C(N)N(C)C1=O` [Compound 378], for which the half-inhibitory concentration (IC50) lay within 1000 to 5000 nM.

In the case of `CN1C(=O)[C@@]2(C[C@]3(CCCOC3)Oc3ccc(-c4cc(C#N)ccc4C(F)(F)F)cc32)N=C1N` [Compound 380], the half-inhibitory concentration (IC50) lay within 1000 to 5000 nM.

Take `CN1C(=O)C2(CC3(CCCc4ccccc4C3)Oc3ccc(Br)cc32)N=C1N` (stereo not drawn) [Compound 381]: the IC50 is 1000 to 5000 nM.

For the compound `CC(C)=CC(CCO)C1CC2(N=C(N)N(C)O2)c2cc(-c3cccc(C#N)c3)ccc2O1` (stereo not drawn) [Compound 382], the half-maximal inhibitory concentration (IC50) is 1000 to 5000 nM.

Consider `CN1OC2(CC3(CCC(Oc4ccccc4)CC3)Oc3ccc(-c4cccc(C#N)c4)cc32)N=C1N` (stereo not drawn) [Compound 383], for which the half-maximal inhibitory concentration (IC50) was 1000 to 5000 nM.

As to `CN1OC2(C[C@H]([C@@H]3CCOC(C)(C)C3)Oc3ccc(-c4cc(F)ccc4F)cc32)N=C1N` (stereo partly drawn) [Compound 384], the IC50 is 1000 to 5000 nM.

Turning to `Cc1ccc(F)cc1-c1ccc2c(c1)[C@]1(C[C@@]3(CCCOC3)O2)N=C(N)N(C)C1=O` [Compound 385], the half-maximal inhibitory concentration (IC50) is 1000 to 5000 nM.

On to `CCOC(=O)c1cccc(-c2ccc3c(c2)[C@]2(C[C@]4(CCCOC4)O3)N=C(N)N(C)C2=O)c1` [Compound 386], for which the IC50 lay within 1000 to 5000 nM.

Turning to `CC1CCC2(CO1)CC1(N=C(N)N(C)O1)c1cc(-c3cccc(C#N)c3)ccc1O2` (stereo not drawn) [Compound 387, 3-(2″H-3″-amino-2″-methyl-spiro(spiro(chroman-2,3′-[2,4,5,6-tetrahydro-6-methyl-pyran])-4,5″-[1,2,4]oxadiazole)-6-yl)benzonitrile], the IC50 is 1000 to 5000 nM.

As for `COC1CCC2(CC1)CC1(N=C(N)N(C)O1)c1cc(-c3cccc(C#N)c3)ccc1O2` (stereo not drawn) [Compound 388], the IC50 is 1000 to 5000 nM.

On to `Cc1cccc(-c2ccc3c(c2)[C@]2(C[C@]4(CCCOC4)O3)N=C(N)N(C)C2=O)c1C` [Compound 389], for which the IC50 was in the range of 1000 to 5000 nM.

Consider `CN1OC2(CC3(CCN(c4ccccc4)CC3)Oc3ccc(-c4cccc(C#N)c4)cc32)N=C1N` (stereo not drawn) [Compound 390], for which the IC50 lay within 1000 to 5000 nM.

Consider `CC(C)=CC(CCO)C1CC2(N=C(N)N(C)O2)c2cc(-c3cc(C#N)ccc3F)ccc2O1` (stereo not drawn) [Compound 391], for which the IC50 was in the range of 1000 to 5000 nM.

For `CC(C)=CC(CCO)[C@@H]1C[C@@]2(N=C(N)N(C)O2)c2cc(-c3cc(F)cc(F)c3F)ccc2O1` (stereo partly drawn) [Compound 392], the 50% inhibitory concentration (IC50) lay in the range of 1000 to 5000 nM.

Take `CN1OC2(CC(C3CCOC(C)(C)C3)Oc3ccc(-c4cccc(Cl)n4)cc32)N=C1N` (stereo not drawn) [Compound 393]: the 50% inhibitory concentration (IC50) was 1000 to 5000 nM.

As to `CN1OC2(C[C@]3(CCCC4CCCCC43)Oc3ccc(-c4cccc(C#N)c4)cc32)N=C1N` (stereo partly drawn) [Compound 394], the IC50 was in the range of 1000 to 5000 nM.

As to `CN1C(=O)C2(CC3(CCCOC3)Oc3ccc(-c4cc(CO)ccc4F)cc32)N=C1N` (stereo not drawn) [Compound 395], the IC50 fell in the range of 1000 to 5000 nM.

Regarding `CN1OC2(CC3(CCOC(C)(C)C3)Oc3ccc(-c4cccc(C#N)c4)cc32)N=C1N` (stereo not drawn) [Compound 396], the IC50 fell in the range of 1000 to 5000 nM.

Take `CN1C(=O)C2(CC3(CCCOC3)Oc3ccc(-c4ccsc4)cc32)N=C1N` (stereo not drawn) [Compound 397]: the IC50 is 1000 to 5000 nM.

On to `CN1O[C@@]2(C[C@@H]([C@H]3CCCOC3)Oc3ccc(-c4cc(F)cc(F)c4)cc32)N=C1N` [Compound 398], for which the IC50 lay within 1000 to 5000 nM.

On to `CN1OC2(N=C1N)c1ccccc1OCC2CCc1cccc(C#N)c1` (stereo not drawn) [Compound 399], for which the half-maximal inhibitory concentration (IC50) was in the range of 1000 to 5000 nM.

As to `CN1OC2(CC(C3CCOC(C)(C)C3)Oc3ccc(-c4cccc(-n5ccnc5)n4)cc32)N=C1N` (stereo not drawn) [Compound 400], the IC50 lay within 1000 to 5000 nM.

For `CC(C)=CC(CC(C)(C)O)C1CC2(N=C(N)N(C)O2)c2cc(-c3cccc(C#N)c3)ccc2O1` (stereo not drawn) [Compound 401], the 50% inhibitory concentration (IC50) lay within 1000 to 5000 nM.

`CC(C)=CC(CCO)C1CC2(N=C(N)N(C)O2)c2cc(-c3cc(F)cc(Cl)c3)ccc2O1` (stereo not drawn) [Compound 404]: the IC50 is 1000 to 5000 nM.

As to `CSc1cccc(-c2ccc3c(c2)[C@]2(C[C@@]4(CCCOC4)O3)N=C(N)N(C)C2=O)c1` [Compound 405], the concentration for half-maximal inhibition (IC50) fell in the range of 1000 to 5000 nM.

Regarding `CN1OC2(CC(C3CCOC(C)(C)C3)Oc3ccc(-c4cccc(C#N)n4)cc32)N=C1N` (stereo not drawn) [Compound 406], the 50% inhibitory concentration (IC50) is 1000 to 5000 nM.

On to `CN1OC2(CC3(CCCOC3)Oc3ccc(C#CC4CC4)cc32)N=C1N` (stereo not drawn) [Compound 407, 2″-methyl-6-(cyclopropylethynyl)-2″H-spiro[spiro[chroman-2,1′-(3-oxacyclohexane)]-4,5′-[1,2,4]oxadiazol]-3″-amine], for which the IC50 was in the range of 1000 to 5000 nM.
